Results published in US20250154219A1, “PEPTIDE ANALOGS” (Adepthera LLC, priority 2017, published 2025).

Columns and labels:
CLR/RAMP1 receptor = CLR/RAMP1 receptor (Homo sapiens, UniProt O60894+Q16602); assay: CLR/RAMP1 cAMP receptor-activation assay (agonist mode); type: cell-based; conditions: for CLR/RAMP1 Max Activity % of positive control: agonist mode, positive control β-CGRP;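 on all read-outs here: Dose–response over 10 threefold dilutions from 1.0 µM, run in duplicate, luminescent cAMP detection (RLU), activity scaled between vehicle control (0%) and maximal control (100%)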
Sequence of CLR/RAMP1 receptor (Q16602 23-461): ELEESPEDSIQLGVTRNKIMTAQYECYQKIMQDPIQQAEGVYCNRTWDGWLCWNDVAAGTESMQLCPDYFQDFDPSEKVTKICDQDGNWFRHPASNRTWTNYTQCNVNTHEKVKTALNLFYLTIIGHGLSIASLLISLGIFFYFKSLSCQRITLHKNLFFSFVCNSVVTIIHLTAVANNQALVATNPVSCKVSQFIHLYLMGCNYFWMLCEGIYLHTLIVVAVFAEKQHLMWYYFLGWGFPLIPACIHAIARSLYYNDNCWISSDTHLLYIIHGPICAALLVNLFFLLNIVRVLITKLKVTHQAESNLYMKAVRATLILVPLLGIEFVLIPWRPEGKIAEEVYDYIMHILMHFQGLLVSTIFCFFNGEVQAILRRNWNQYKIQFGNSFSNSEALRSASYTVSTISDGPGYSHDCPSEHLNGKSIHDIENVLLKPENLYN
Sequence of CLR/RAMP1 receptor (O60894 27-148): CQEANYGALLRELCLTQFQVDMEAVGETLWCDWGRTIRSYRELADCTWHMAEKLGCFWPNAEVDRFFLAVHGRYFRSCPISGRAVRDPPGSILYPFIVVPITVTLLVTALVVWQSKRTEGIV

CLR/RAMP2 receptor = CLR/RAMP2 receptor (Homo sapiens, UniProt O60895+Q16602); assay: CLR/RAMP2 arrestin receptor-activation assay (agonist mode); type: cell-based; conditions: for CLR/RAMP2 Max Activity % of positive control: agonist mode, positive control ADM; for receptor selectivity of agonists, in words: CLR/RAMP2 versus CLR/RAMP1;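 on all read-outs here: agonist dose-response in recombinant cell lines stably expressing each receptor complex, duplicate wells over 10 threefold dilutions from a top concentration of 1.0 µM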
Sequence of CLR/RAMP2 receptor (Q16602 23-461): as the sequence (Q16602 23-461) above
Sequence of CLR/RAMP2 receptor (O60895 43-175): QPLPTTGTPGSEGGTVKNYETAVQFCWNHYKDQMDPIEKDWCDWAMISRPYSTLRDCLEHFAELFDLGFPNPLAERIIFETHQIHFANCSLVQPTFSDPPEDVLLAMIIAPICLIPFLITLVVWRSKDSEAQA

With `CSCC[C@H](NC(=O)CNC(=O)CNC(=O)[C@H](CO)NC(=O)[C@H](CCCNC(=N)N)NC(=O)[C@H](CO)NC(=O)[C@H](CC(C)C)NC(=O)[C@H](CC(C)C)NC(=O)CNC(=O)[C@H](C)NC(=O)[C@H](CC(C)C)NC(=O)[C@H](CCCNC(=N)N)NC(=O)[C@H](Cc1c[nH]cn1)NC(=O)[C@@H](NC(=O)[C@@H](NC(=O)[C@@H]1CSSC[C@H](NC(=O)[C@H](C)N)C(=O)N[C@@H](CC(N)=O)C(=O)N[C@@H]([C@@H](C)O)C(=O)N[C@@H](C)C(=O)N[C@@H]([C@@H](C)O)C(=O)N1)C(C)C)[C@@H](C)O)C(=O)N[C@H](C(=O)N[C@@H](CCCCN)C(=O)N[C@@H](CO)C(=O)N[C@@H](CC(N)=O)C(=O)N[C@@H](Cc1ccccc1)C(=O)N[C@H](C(=O)N1CCC[C@H]1C(=O)N[C@H](C(=O)N[C@@H](CC(N)=O)C(=O)N[C@H](C(=O)NCC(=O)N[C@@H](CO)C(=O)N[C@@H](CCCCN)C(=O)N[C@@H](C)C(=O)N[C@@H](Cc1ccccc1)C(N)=O)C(C)C)[C@@H](C)O)C(C)C)C(C)C` [SEQ ID NO: 143, reference compound] the “CLR/RAMP1 Max Activity % of positive control” value (shortened to “CLR/RAMP1 Max Activity %”) (CLR/RAMP1 receptor) was 103 % of positive control.

For “Ace-FGCRFGTCTVQKLAHQIYQFTDKDKDNVAPRSKISPQGY-NH2 [SEQ ID NO: 53, reference compound]”, the “agonistic potency for CLR/RAMP1 and/or CLR/RAMP2 receptors, in words” value (CLR/RAMP1 receptor; CLR/RAMP1 and/or CLR/RAMP2) was “low potency ligands”, the “CLR/RAMP1 Max Activity %” value (CLR/RAMP1 receptor) was 69 % of positive control and the “CLR/RAMP2 Max Activity % of positive control” value (“CLR/RAMP2 Max Activity %” for short) (CLR/RAMP2 receptor) was 102 % of positive control.

For “Ace-PEG3-K(Hexadecanoyl-PEG3-isoGlu)GCRFGTCTVQKLAHQIYQFTDKDKDNVAPRSKISPQGY-NH2 [SEQ ID NO: 154]”, the “CLR/RAMP1 Max Activity %” value (CLR/RAMP1 receptor) was 83 % of positive control and the “CLR/RAMP2 Max Activity %” value (CLR/RAMP2 receptor) was 112 % of positive control.

For “Ace-PEG3-K(Hexadecanoyl-isoGlu)GCRFGTCTVQKLAHQIYQFTDKDKDNVAPRSKISPQGY-NH2 [SEQ ID NO: 151]”, the “CLR/RAMP1 Max Activity %” value (CLR/RAMP1 receptor) was 85 % of positive control and the “CLR/RAMP2 Max Activity %” value (CLR/RAMP2 receptor) was 134 % of positive control.

For “Ace-PEG3-K(Hexadecanoyl-isoGlu-PEG3)GCRFGTCTVQKLAHQIYQFTDKDKDNVAPRSKISPQGY-NH2 [SEQ ID NO: 152]”, the “CLR/RAMP1 Max Activity %” value (CLR/RAMP1 receptor) was 80 % of positive control and the “CLR/RAMP2 Max Activity %” value (CLR/RAMP2 receptor) was 132 % of positive control.

For “Ace-PEG3-K(Hexadecanoyl-isoGlu-PEG3-PEG3)GCRFGTCTVQKLAHQIYQFTDKDKDNVAPRSKISPQGY-NH2 [SEQ ID NO: 153]”, the “CLR/RAMP1 Max Activity %” value (CLR/RAMP1 receptor) was 78 % of positive control and the “CLR/RAMP2 Max Activity %” value (CLR/RAMP2 receptor) was 108 % of positive control.

With “Ace-PEG3-K([19-carboxy-nonadecanoyl]-PEG3-isoGlu)GCRFGTCTVQKLAHQIYQFTDKDKDNVAPRSKISPQGY-NH2 [SEQ ID NO: 156]” the “CLR/RAMP1 Max Activity %” value (CLR/RAMP1 receptor) was 88 % of positive control and the “CLR/RAMP2 Max Activity %” value (CLR/RAMP2 receptor) was 91 % of positive control.

For “Ace-PEG3-K([19-carboxy-nonadecanoyl]-isoGlu)GCRFGTCTVQKLAHQIYQFTDKDKDNVAPRSKISPQGY-NH2 [SEQ ID NO: 155]”, the “CLR/RAMP1 Max Activity %” value (CLR/RAMP1 receptor) was 81 % of positive control and the “CLR/RAMP2 Max Activity %” value (CLR/RAMP2 receptor) was 95 % of positive control.

In the case of “Ace-PEG3-K([19-carboxy-nonadecanoyl]-isoGlu-PEG3)GCRFGTCTVQKLAHQIYQFTDKDVAPRSKISPQGY-NH2 [SEQ ID NO: 159]”, the “CLR/RAMP1 Max Activity %” value (CLR/RAMP1 receptor) is reported as 90 % of positive control and the “CLR/RAMP2 Max Activity %” value (CLR/RAMP2 receptor) is reported as 60 % of positive control.

In the case of “Ace-PEG3-K([19-carboxy-nonadecanoyl]-isoGlu-Peg3-Peg3)GCRFGTCTVQKLAHQIYQFTDKDKDNVAPRSKISPQGY-NH2 [SEQ ID NO: 157]”, the “CLR/RAMP1 Max Activity %” value (CLR/RAMP1 receptor) is reported as 100 % of positive control and the “CLR/RAMP2 Max Activity %” value (CLR/RAMP2 receptor) is reported as 95 % of positive control.

For “Ace-PEG12-PEG12-K([19-carboxy-nonadecanoyl]-isoGlu-PEG3)GCRFGTCTVQKLAHQIYQFTDKDKDNVAPRSKISPQGY-NH2 [SEQ ID NO: 150]”, the “CLR/RAMP1 Max Activity %” value (CLR/RAMP1 receptor) was 94 % of positive control and the “CLR/RAMP2 Max Activity %” value (CLR/RAMP2 receptor) was 60 % of positive control.

For “Ace-RPKPQQFFGLM-miniPEG-K(PAL)GCRFGTCTVQKLAHQIYQFTDKDSAPVDPSSPHSY-NH2 [SEQ ID NO: 147]”, the “CLR/RAMP1 Max Activity %” value (CLR/RAMP1 receptor) was 109 % of positive control and the “CLR/RAMP2 Max Activity %” value (CLR/RAMP2 receptor) was 90 % of positive control.

For “AcePEG3--K([17-carboxy-heptadecanoyl]-isoGlu-Peg3-Peg3)GCRFGTCTVQKLAHQIYQFTDKDKDNVAPRSKISPQGY-NH2 [SEQ ID NO: 158]”, the “CLR/RAMP1 Max Activity %” value (CLR/RAMP1 receptor) was 95 % of positive control and the “CLR/RAMP2 Max Activity %” value (CLR/RAMP2 receptor) was 113 % of positive control.

With “Human β-CGRP [Wild type CGRP-β positive, reference compound]” the “CLR/RAMP1 Max Activity %” value (CLR/RAMP1 receptor) was 100 % of positive control.

“Pyr(glu)-LYENKPRRPYIL-miniPEG-K(PAL)GCRFGTCTVQKLAHQIYQFTDKDVAPRSKISPQGY-NH2 [SEQ ID NO: 223]” was tested, and the “CLR/RAMP1 Max Activity %” value (CLR/RAMP1 receptor) was 102 % of positive control and the “CLR/RAMP2 Max Activity %” value (CLR/RAMP2 receptor) was 70 % of positive control.

“miniPEG-K(PAL)CRFGTCTVQKLAHQIYQFTDKDKDNSAPVDPSSPHSY-NH2 [SEQ ID NO: 43]” was tested, and the “CLR/RAMP1 Max Activity %” value (CLR/RAMP1 receptor) was 39 % of positive control and the “CLR/RAMP2 Max Activity %” value (CLR/RAMP2 receptor) was 30 % of positive control.

With “miniPEG-K(PAL)GCRFGTC(D-Thr)VQKLAHQIYQFTDKDVAPRSKISPQGY-NH2 [SEQ ID NO: 210]” the “CLR/RAMP1 Max Activity %” value (CLR/RAMP1 receptor) was 77 % of positive control, the “receptor selectivity of agonists, in words” value (“receptor selectivity” for short) (CLR/RAMP2 receptor) was “CLR/RAMP2-selective” and the “CLR/RAMP2 Max Activity %” value (CLR/RAMP2 receptor) was 47 % of positive control.

With “miniPEG-K(PAL)GCRFGTCT(D-Val)QKLAHQIYQFTDKDVAPRSKISPQGY-NH2 [SEQ ID NO: 211]” the “CLR/RAMP1 Max Activity %” value (CLR/RAMP1 receptor) was 91 % of positive control, the “receptor selectivity” value (CLR/RAMP2 receptor) was “CLR/RAMP2-selective” and the “CLR/RAMP2 Max Activity %” value (CLR/RAMP2 receptor) was 22 % of positive control.

With “miniPEG-K(PAL)GCRFGTCTVQKLAHQIYQFTDKDKDNVAPRSKSSPHSY-NH2 [SEQ ID NO: 61]” the “CLR/RAMP1 Max Activity %” value (CLR/RAMP1 receptor) was 70 % of positive control and the “CLR/RAMP2 Max Activity %” value (CLR/RAMP2 receptor) was 92 % of positive control.

For “miniPEG-K(PAL)GCRFGTCTVQKLAHQIYQFTDKDKDNVAPVDPSSPHSY-NH2 [SEQ ID NO: 50]”, the “CLR/RAMP1 Max Activity %” value (CLR/RAMP1 receptor) was 65 % of positive control and the “CLR/RAMP2 Max Activity %” value (CLR/RAMP2 receptor) was 87 % of positive control.

“miniPEG-K(PAL)GCRFGTCTVQKLAHQIYQFTDKDKDNVDPSSPHSY-NH2 [SEQ ID NO: 94]” was tested, and the “CLR/RAMP1 Max Activity %” value (CLR/RAMP1 receptor) was 67 % of positive control, the “receptor selectivity” value (CLR/RAMP2 receptor) was “CLR/RAMP2-selective” and the “CLR/RAMP2 Max Activity %” value (CLR/RAMP2 receptor) was 82 % of positive control.

For “miniPEG-K(PAL)GCRFGTCTVQKLAHQIYQFTDKDKDSAPVDPSSPHSY-NH2 [SEQ ID NO: 46]”, the “CLR/RAMP1 Max Activity %” value (CLR/RAMP1 receptor) was 60 % of positive control and the “CLR/RAMP2 Max Activity %” value (CLR/RAMP2 receptor) was 104 % of positive control.

With “miniPEG-K(PAL)GCRFGTCTVQKLAHQIYQFTDKDKQDSAPVDPSSPHSY-NH2 [SEQ ID NO: 51]” the “CLR/RAMP1 Max Activity %” value (CLR/RAMP1 receptor) was 65 % of positive control and the “CLR/RAMP2 Max Activity %” value (CLR/RAMP2 receptor) was 107 % of positive control.

In the case of “miniPEG-K(PAL)GCRFGTCTVQKLAHQIYQFTDKDKSAPVDPSSPHSY-NH2 [SEQ ID NO: 47]”, the “CLR/RAMP1 Max Activity %” value (CLR/RAMP1 receptor) is reported as 85 % of positive control and the “CLR/RAMP2 Max Activity %” value (CLR/RAMP2 receptor) is reported as 64 % of positive control.

With “miniPEG-K(PAL)GCRFGTCTVQKLAHQIYQFTDKGRQDSAPVDPSSPHSY-NH2 [SEQ ID NO: 68]” the “CLR/RAMP2 Max Activity %” value (CLR/RAMP2 receptor) was 70 % of positive control.
